Test results as given in paper PMC8005217, “Unravelling Regioselectivity of Leuconostoc citreum ABK-1 Alternansucrase by Acceptor Site Engineering” (International Journal of Molecular Sciences, 2021).

Experiments:
Experiment in all cases: DNS reducing sugar assay (total activity)
Assay type in all cases: biochemical
Details in all cases: 0–368 mM sucrose, 50 mM sodium citrate pH 4.0, 40 °C, read-out: Km or k
[1] = biological target: T1, LcALT (truncated Leuconostoc citreum ABK-1 alternansucrase, pETΔ7SH, WT) (Leuconostoc citreum, UniProt A0A2H4A2Q1, W554A, form not given)
T1 construct: gene asr; pET19b via NcoI/XhoI, purified recombinant; exact borders and tags only in cited earlier work
Excerpt: (§1) DNS reducing sugar assay (total activity) on LcALT (truncated Leuconostoc citreum ABK-1 alternansucrase, pETΔ7SH, WT)

[2] = biological target: T2, LcALT (truncated Leuconostoc citreum ABK-1 alternansucrase, pETΔ7SH, WT) (Leuconostoc citreum, UniProt A0A2H4A2Q1, W554F, form not given)
T2 construct: gene asr; pET19b via NcoI/XhoI, purified recombinant; exact borders and tags only in cited earlier work
Excerpt: as §1

[3] = biological target: T3, LcALT (truncated Leuconostoc citreum ABK-1 alternansucrase, pETΔ7SH, WT) (Leuconostoc citreum, UniProt A0A2H4A2Q1, W554I, form not given)
T3 construct: gene asr; pET19b via NcoI/XhoI, purified recombinant; exact borders and tags only in cited earlier work
Excerpt: as §1

[4] = biological target: T4, LcALT (truncated Leuconostoc citreum ABK-1 alternansucrase, pETΔ7SH, WT) (Leuconostoc citreum, UniProt A0A2H4A2Q1, W554L, form not given)
T4 construct: gene asr; pET19b via NcoI/XhoI, purified recombinant; exact borders and tags only in cited earlier work
Excerpt: as §1

[5] = biological target: T5, LcALT (truncated Leuconostoc citreum ABK-1 alternansucrase, pETΔ7SH, WT) (Leuconostoc citreum, UniProt A0A2H4A2Q1, W554S, form not given)
T5 construct: gene asr; pET19b via NcoI/XhoI, purified recombinant; exact borders and tags only in cited earlier work
Excerpt: as §1

[6] = biological target: T6, LcALT (truncated Leuconostoc citreum ABK-1 alternansucrase, pETΔ7SH, WT) (Leuconostoc citreum, UniProt A0A2H4A2Q1, W554Y, form not given)
T6 construct: gene asr; pET19b via NcoI/XhoI, purified recombinant; exact borders and tags only in cited earlier work
Excerpt: as §1

T1 sequence (A0A2H4A2Q1 entry or part of it W554A, form open): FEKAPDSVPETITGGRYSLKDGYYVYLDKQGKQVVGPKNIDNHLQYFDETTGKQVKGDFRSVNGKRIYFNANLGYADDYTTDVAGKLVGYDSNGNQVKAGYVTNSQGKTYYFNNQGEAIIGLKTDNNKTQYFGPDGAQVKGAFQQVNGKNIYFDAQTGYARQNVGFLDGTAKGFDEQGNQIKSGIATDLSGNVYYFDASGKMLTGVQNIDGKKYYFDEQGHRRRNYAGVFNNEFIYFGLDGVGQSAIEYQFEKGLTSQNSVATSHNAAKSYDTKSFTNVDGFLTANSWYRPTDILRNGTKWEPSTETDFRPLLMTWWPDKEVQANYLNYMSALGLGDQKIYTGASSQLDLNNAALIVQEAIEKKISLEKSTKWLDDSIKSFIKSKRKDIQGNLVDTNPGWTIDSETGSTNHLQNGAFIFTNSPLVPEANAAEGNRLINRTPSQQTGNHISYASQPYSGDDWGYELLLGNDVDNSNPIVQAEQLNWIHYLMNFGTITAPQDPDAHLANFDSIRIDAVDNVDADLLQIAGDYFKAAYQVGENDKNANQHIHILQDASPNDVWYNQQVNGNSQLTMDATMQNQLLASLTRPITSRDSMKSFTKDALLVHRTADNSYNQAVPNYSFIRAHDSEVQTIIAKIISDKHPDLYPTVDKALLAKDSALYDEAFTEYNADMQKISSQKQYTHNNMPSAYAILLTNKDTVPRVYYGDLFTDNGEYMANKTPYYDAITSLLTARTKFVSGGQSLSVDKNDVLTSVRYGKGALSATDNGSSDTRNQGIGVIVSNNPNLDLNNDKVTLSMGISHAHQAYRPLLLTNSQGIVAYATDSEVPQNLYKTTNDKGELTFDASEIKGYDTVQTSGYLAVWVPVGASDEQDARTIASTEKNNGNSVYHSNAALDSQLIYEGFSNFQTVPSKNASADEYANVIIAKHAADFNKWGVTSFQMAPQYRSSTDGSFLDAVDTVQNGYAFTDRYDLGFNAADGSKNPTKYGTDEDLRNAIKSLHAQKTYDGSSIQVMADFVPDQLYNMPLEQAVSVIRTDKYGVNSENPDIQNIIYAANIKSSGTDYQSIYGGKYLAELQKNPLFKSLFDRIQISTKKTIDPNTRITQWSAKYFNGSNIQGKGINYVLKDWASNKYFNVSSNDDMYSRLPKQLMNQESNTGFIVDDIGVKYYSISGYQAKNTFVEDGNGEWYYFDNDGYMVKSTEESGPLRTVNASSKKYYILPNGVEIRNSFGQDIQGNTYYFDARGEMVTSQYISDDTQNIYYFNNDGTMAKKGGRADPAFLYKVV
T3 sequence (A0A2H4A2Q1 entry or part of it W554I, form open): as the sequence (A0A2H4A2Q1 entry or part of it W554A, form open) above, with A554I counted along it
T4 sequence (A0A2H4A2Q1 entry or part of it W554L, form open): as the sequence (A0A2H4A2Q1 entry or part of it W554A, form open) above, with A554L counted along it
T6 sequence (A0A2H4A2Q1 entry or part of it W554Y, form open): as the sequence (A0A2H4A2Q1 entry or part of it W554A, form open) above, with A554Y counted along it
T2 sequence (A0A2H4A2Q1 entry or part of it W554F, form open): as the sequence (A0A2H4A2Q1 entry or part of it W554A, form open) above, with A554F counted along it
T5 sequence (A0A2H4A2Q1 entry or part of it W554S, form open): as the sequence (A0A2H4A2Q1 entry or part of it W554A, form open) above, with A554S counted along it

Km [1]: 43 ± 4.7 mM | Km [2]: 16.6 ± 2.1 mM | Km [3]: 53.1 ± 4.6 mM | Km [4]: 46.4 ± 6 mM | Km [5]: 63.6 ± 8.3 mM | Km [6]: 14.2 ± 2 mM
Compound: OC[C@H]1O[C@@](CO)(O[C@H]2O[C@H](CO)[C@@H](O)[C@H](O)[C@H]2O)[C@@H](O)[C@@H]1O [sucrose]
